# Source: PubChem BioAssay (NCI)
#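 In this assay, cells in 96-well plates receive the compound at five concentrations for 48 hours. Endpoints are linearly interpolated between the surrounding concentrations. The concentration for full growth arrest is given as TGI.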
# Legend:
# Test in all cases: NCI tumour cell line growth inhibition, 48 h
# 786-0 renal = tested on: 786-0 renal
# A498 renal = tested on: A498 renal
# A549 NSCLC = tested on: A549 NSCLC
# ACHN renal = tested on: ACHN renal
# CAKI-1 renal = tested on: CAKI-1 renal
# CCRF-CEM leukemia = tested on: CCRF-CEM leukemia
# COLO 205 colon = tested on: COLO 205 colon
# DLD-1 colon = tested on: DLD-1 colon
# DMS 114 small cell lung = tested on: DMS 114 small cell lung
# DMS 273 small cell lung = tested on: DMS 273 small cell lung
# EKVX NSCLC = tested on: EKVX NSCLC
# HCC-2998 colon = tested on: HCC-2998 colon
# HCT-116 colon = tested on: HCT-116 colon
# HL-60(TB) leukemia = tested on: HL-60(TB) leukemia
# HOP-18 NSCLC = tested on: HOP-18 NSCLC
# HOP-62 NSCLC = tested on: HOP-62 NSCLC
# HOP-92 NSCLC = tested on: HOP-92 NSCLC
# HT29 colon = tested on: HT29 colon
# IGROV1 ovarian = tested on: IGROV1 ovarian
# K-562 leukemia = tested on: K-562 leukemia
# KM12 colon = tested on: KM12 colon
# KM20L2 colon = tested on: KM20L2 colon
# LOX IMVI melanoma = tested on: LOX IMVI melanoma
# LXFL 529 NSCLC = tested on: LXFL 529 NSCLC
# M14 melanoma = tested on: M14 melanoma
# M19-MEL melanoma = tested on: M19-MEL melanoma
# MALME-3M melanoma = tested on: MALME-3M melanoma
# MOLT-4 leukemia = tested on: MOLT-4 leukemia
# NCI-H226 lung = tested on: NCI-H226 lung
# NCI-H23 lung = tested on: NCI-H23 lung
# NCI-H460 lung = tested on: NCI-H460 lung
# NCI-H522 lung = tested on: NCI-H522 lung
# OVCAR-3 ovarian = tested on: OVCAR-3 ovarian
# OVCAR-4 ovarian = tested on: OVCAR-4 ovarian
# OVCAR-8 ovarian = tested on: OVCAR-8 ovarian
# RPMI-8226 leukemia = tested on: RPMI-8226 leukemia
# RXF 393 renal = tested on: RXF 393 renal
# RXF-631 renal = tested on: RXF-631 renal
# SF-268 CNS = tested on: SF-268 CNS
# SF-295 CNS = tested on: SF-295 CNS
# SF-539 CNS = tested on: SF-539 CNS
# SK-MEL-28 melanoma = tested on: SK-MEL-28 melanoma
# SK-MEL-5 melanoma = tested on: SK-MEL-5 melanoma
# SK-OV-3 ovarian = tested on: SK-OV-3 ovarian
# SN12C renal = tested on: SN12C renal
# SNB-19 CNS = tested on: SNB-19 CNS
# SNB-75 CNS = tested on: SNB-75 CNS
# SNB-78 CNS = tested on: SNB-78 CNS
# SR leukemia = tested on: SR leukemia
# SW-620 colon = tested on: SW-620 colon
# TK-10 renal = tested on: TK-10 renal
# U251 CNS = tested on: U251 CNS
# UACC-257 melanoma = tested on: UACC-257 melanoma
# UACC-62 melanoma = tested on: UACC-62 melanoma
# UO-31 renal = tested on: UO-31 renal
# XF 498 CNS = tested on: XF 498 CNS
# HCT-15 colon = tested on: HCT-15 colon
# MCF7 breast = tested on: MCF7 breast
# NCI/ADR-RES ovarian = tested on: NCI/ADR-RES ovarian
# OVCAR-5 ovarian = tested on: OVCAR-5 ovarian
# P388 leukemia = tested on: P388 leukemia
# P388/ADR leukemia = tested on: P388/ADR leukemia
# SK-MEL-2 melanoma = tested on: SK-MEL-2 melanoma
# SN12K1 renal = tested on: SN12K1 renal
smiles,measurement,setting,value
Cc1cc(NS(=O)(=O)c2ccc(NC(=O)c3cccn4c(=O)c5ccccc5nc34)cc2)no1,TGI,786-0 renal,> 100 µM
same,TGI,A498 renal,> 100 µM
same,TGI,A549 NSCLC,> 100 µM
same,TGI,ACHN renal,> 100 µM
same,TGI,CAKI-1 renal,> 100 µM
same,TGI,CCRF-CEM leukemia,> 100 µM
same,TGI,COLO 205 colon,> 100 µM
same,TGI,DLD-1 colon,> 100 µM
same,TGI,DMS 114 small cell lung,> 100 µM
same,TGI,DMS 273 small cell lung,> 100 µM
same,TGI,EKVX NSCLC,> 100 µM
same,TGI,HCC-2998 colon,> 100 µM
same,TGI,HCT-116 colon,> 100 µM
same,TGI,HL-60(TB) leukemia,> 100 µM
same,TGI,HOP-18 NSCLC,> 100 µM
same,TGI,HOP-62 NSCLC,> 100 µM
same,TGI,HOP-92 NSCLC,> 100 µM
same,TGI,HT29 colon,> 100 µM
same,TGI,IGROV1 ovarian,> 100 µM
same,TGI,K-562 leukemia,> 100 µM
same,TGI,KM12 colon,> 100 µM
same,TGI,KM20L2 colon,> 100 µM
same,TGI,LOX IMVI melanoma,> 100 µM
same,TGI,LXFL 529 NSCLC,> 100 µM
same,TGI,M14 melanoma,> 100 µM
same,TGI,M19-MEL melanoma,> 100 µM
same,TGI,MALME-3M melanoma,> 100 µM
same,TGI,MOLT-4 leukemia,> 100 µM
same,TGI,NCI-H226 lung,> 100 µM
same,TGI,NCI-H23 lung,> 100 µM
same,TGI,NCI-H460 lung,> 100 µM
same,TGI,NCI-H522 lung,> 100 µM
same,TGI,OVCAR-3 ovarian,> 100 µM
same,TGI,OVCAR-4 ovarian,> 100 µM
same,TGI,OVCAR-8 ovarian,> 100 µM
same,TGI,RPMI-8226 leukemia,> 100 µM
same,TGI,RXF 393 renal,> 100 µM
same,TGI,RXF-631 renal,> 100 µM
same,TGI,SF-268 CNS,> 100 µM
same,TGI,SF-295 CNS,> 100 µM
same,TGI,SF-539 CNS,> 100 µM
same,TGI,SK-MEL-28 melanoma,> 100 µM
same,TGI,SK-MEL-5 melanoma,> 100 µM
same,TGI,SK-OV-3 ovarian,> 100 µM
same,TGI,SN12C renal,> 100 µM
same,TGI,SNB-19 CNS,> 100 µM
same,TGI,SNB-75 CNS,> 100 µM
same,TGI,SNB-78 CNS,> 100 µM
same,TGI,SR leukemia,> 100 µM
same,TGI,SW-620 colon,> 100 µM
same,TGI,TK-10 renal,> 100 µM
same,TGI,U251 CNS,> 100 µM
same,TGI,UACC-257 melanoma,> 100 µM
same,TGI,UACC-62 melanoma,> 100 µM
same,TGI,UO-31 renal,> 100 µM
same,TGI,XF 498 CNS,> 100 µM
CC1=NCCc2cc3[nH]c4ccccc4c3cc21,TGI,A498 renal,46.1 µM
same,TGI,A549 NSCLC,103 µM
same,TGI,CAKI-1 renal,57.6 µM
same,TGI,CCRF-CEM leukemia,36.9 µM
same,TGI,COLO 205 colon,24.5 µM
same,TGI,DLD-1 colon,73.1 µM
same,TGI,DMS 114 small cell lung,23.4 µM
same,TGI,DMS 273 small cell lung,50.6 µM
same,TGI,EKVX NSCLC,95.8 µM
same,TGI,HCC-2998 colon,53.8 µM
same,TGI,HCT-116 colon,45.5 µM
same,TGI,HCT-15 colon,78.4 µM
same,TGI,HL-60(TB) leukemia,37.6 µM
same,TGI,HOP-18 NSCLC,50 µM
same,TGI,HOP-62 NSCLC,111 µM
same,TGI,HOP-92 NSCLC,5.45 µM
same,TGI,HT29 colon,48.7 µM
same,TGI,IGROV1 ovarian,> 85.3 µM
same,TGI,K-562 leukemia,22.9 µM
same,TGI,KM12 colon,78.8 µM
same,TGI,KM20L2 colon,45.7 µM
same,TGI,LOX IMVI melanoma,37.7 µM
same,TGI,M19-MEL melanoma,43.6 µM
same,TGI,MALME-3M melanoma,22.3 µM
same,TGI,MCF7 breast,69.7 µM
same,TGI,MOLT-4 leukemia,34.3 µM
same,TGI,NCI-H226 lung,37.9 µM
same,TGI,NCI-H23 lung,83.8 µM
same,TGI,NCI-H460 lung,37.1 µM
same,TGI,NCI-H522 lung,84.9 µM
same,TGI,NCI/ADR-RES ovarian,83.8 µM
same,TGI,OVCAR-3 ovarian,114 µM
same,TGI,OVCAR-4 ovarian,110 µM
same,TGI,OVCAR-5 ovarian,56.6 µM
same,TGI,OVCAR-8 ovarian,> 88.5 µM
same,TGI,P388 leukemia,21.9 µM
same,TGI,P388/ADR leukemia,34.2 µM
same,TGI,RPMI-8226 leukemia,40.3 µM
same,TGI,RXF 393 renal,23.4 µM
same,TGI,SF-268 CNS,77.7 µM
same,TGI,SF-295 CNS,46.8 µM
same,TGI,SF-539 CNS,32 µM
same,TGI,SK-MEL-2 melanoma,29.3 µM
same,TGI,SK-MEL-28 melanoma,24.6 µM
same,TGI,SK-MEL-5 melanoma,28.1 µM
same,TGI,SK-OV-3 ovarian,62.6 µM
same,TGI,SN12C renal,62.9 µM
same,TGI,SN12K1 renal,44.6 µM
same,TGI,SNB-19 CNS,116 µM
same,TGI,SNB-75 CNS,70 µM
same,TGI,SNB-78 CNS,86.9 µM
same,TGI,SW-620 colon,52.5 µM
same,TGI,U251 CNS,79 µM
same,TGI,UACC-257 melanoma,24.6 µM
same,TGI,UACC-62 melanoma,39.8 µM
same,TGI,UO-31 renal,54.9 µM
same,TGI,XF 498 CNS,30.5 µM
